Assays:
[1] = Foam evaluation (foam height); type: physicochemical; details: 1200 ppm solution in water; 120° F.; additive with quaternary ammonium compound
Description: The foaming properties of the quaternary ammonium compounds were evaluated and then tested for reduced foaming when traditional defoaming compounds were included. The foam height was determined with the following procedural steps: • 1. A 1200 ppm solution of the test composition was mixed in water. • 2. The foam height was measured immediately after mixing. • 3. The solution was agitated and the foam height was measured after 15 seconds. • 4. The solution was agitated and the solution was measured after another 45 seconds of agitation (60 seconds total since the solution was mixed). The temperature of the solution was at 120° F. for the duration of the test. As can been seen in FIGS. 1A and 1B, the various quaternary ammonium compounds tested provided significant foam height after mixing at after 15 seconds of agitation. The traditional defoamers had varying impacts on the foaming properties of the quaternary ammonium compounds.
The ability of the polycarboxylic acids and/or salts to control the foam of different quaternary ammonium compounds was also tested. The same procedural steps outlined above were followed. […].

E. coli (ATCC 11229) = experiment: Antimicrobial evaluation, log reduction of microbial population; type: cell-based; details: pH 7, 500 ppm hard water, 120° F., about 30 seconds contact
Description: The quaternary ammonium compounds were tested for antimicrobial efficacy against exemplary bacteria (E. coli and S. aureus) under different pH conditions. For this evaluation, various test solutions were prepared in 500 ppm hard water at a temperature of 120° F. The microbial population was contacted with the test composition for about 30 seconds. The microbial population was measured before and after the contacting step and the difference was taken to identify the log reduction. The quaternary ammonium compounds tested, their concentrations, and the corresponding log reductions are shown below in Table 2.

Row | Structure (SMILES) | reduction to the foaming of quaternary ammonium compounds [1] | log reduction (E. coli (ATCC 11229); 30 ppm) | log reduction (E. coli (ATCC 11229); 40 ppm) | log reduction (E. coli (ATCC 11229); 50 ppm)
1 | O=S(=O)([O-])[O-].[Na+].[Na+] [sodium sulfate] | did not | – | – | –
2 | CC(=O)O [acetate] | did not | – | – | –
3 | O=C([O-])c1ccccc1.[Na+] [sodium benzoate] | did not | – | – | –
4 | CCCCCCCCCC[N+](C)(C)CCCCCCCCCC.[Cl-] [Bardac 2250, didecyl dimethyl ammonium chloride] | – | 3.33 | 5.02 | 6.71

— US12655365B2, “Low foam cleaning compositions” (ECOLAB USA INC., priority 2020, dated 2026)
